Reference: patent US8742113B2, “Furanone derivative” (SBI Biotech Co., Ltd., priority 2011, dated 2014)
Where two headings read alike, the source gives them in different places.

Key:
[1] = molecular target: human Cdc7/human ASK complex protein (Homo sapiens (Human), UniProt O00311); assay: Inhibitory effect on Cdc7 protein kinase (MSA assay kit); type: biochemical
Method: [Inhibitory Effect on Cdc7 Protein Kinase]
Measurement of kinase activity was carried out using an MSA assay kit (QuickScout Screening Assist™ Kit, Carna Biosciences, Inc.).
Assay buffer (20 mM HEPES, 0.01% Triton X-100™, 2 mM dithiothreitol, pH 7.5) was used to prepare a substrate mixture solution comprising 4 μM of a kinase-reaction substrate (FITC-labeled MCM2 peptide), 40 mM MgCl2, and 20 μM ATP.
The enzyme supplied in the kit (human Cdc7/human ASK complex protein) was diluted in the assay buffer so as to be at 7 nM, thereby preparing an enzyme solution.
The stock solution of each test compound was diluted in DMSO to prepare diluted DMSO solutions of 10 concentrations (0.00003 mM, 0.0001 mM, 0.0003 mM, 0.001 mM, 0.003 mM, 0.01 mM, 0.03 mM, 0.1 mM, 0.3 mM, 1 mM), each of which was further diluted 25 times in the assay buffer to make a drug solution (a solution containing 4% DMSO).
The kinase reaction was performed in wells of a polypropylene 384-well plate in which 5 μl of each of the drug solutions or of a solvent (assay buffer containing 4% DMSO), 5 μl of the substrate mixture solution, and 10 μl of the enzyme solution were mixed. The assay buffer, instead of the enzyme solution, was added to blank wells. After the reaction at room temperature for 5 hours, 60 μl of the termination buffer supplied in the kit was added to each well to stop the reaction. The percent inhibition of each reaction was determined using a LabChip EZ Reader II system (manufactured by Caliper Life Sciences), according to the protocol provided with the assay kit. In this case, the peak heights of the separated substrate and the phosphorylated substrate were represented as S and P, respectively, and the percent inhibition (%) by a tested compound was calculated according to the following formula: Percent inhibition(%)=(1−(C−A)/(B−A))×100 wherein A denotes P/(P+S) for a blank well, B denotes P/(P+S) for a solvent well, and C denotes P/(P+S) for a compound-added well.
The IC50 value of a tested compound was calculated by regression analysis of the percent inhibition values versus the (logarithmic) concentrations of the tested compound.

[2] = system: MCM2 phosphorylation in COLO205 cells; assay: Inhibitory effect on MCM2 phosphorylation using cells (Western blot); type: cell-based; details: Homo sapiens, COLO 205, 0.1 μM test compound, 24 hours, class by percent phosphorylation of MCM2, read-out: Test Example 2 Inhibitory effect on MCM2 phosphorylation
Method: [Inhibitory Effect on Phosphorylation Using Cells]
COLO205 cells derived from human colon adenocarcinoma (RCB2127, RIKEN BRC) were cultured in 10 cm dishes using RPMI-1640 medium (SIGMA, R8758) supplemented with 10% FCS (Equitech-bio) and 5% penicillin/streptomycin (GIBCO, 15140). After the cells were cultured to a confluence of 70 to 90%, the medium was removed, and the cells were treated with trypsin (2 mL, TrypLE Express, GIBCO, 12604-021) and then harvested using a new medium.
COLO205 cells were seeded in 6-well plates (FALCON, 35046) to 2.5×10^5 cells (1 ml) per well and cultured overnight in a 5% CO2 incubator. A drug solution, which was prepared by adding 1.5 μl of a 0.1-mM stock solution in DMSO of a test compound to 500 μl of medium, was added to each well (to a final drug concentration of 0.1 μM), and then cultured for another 24 hours.
Cells were cultured for 24 hours in the presence of a test compound, harvested using a similar way as described above, washed with PBS, and then pelletized and stored at −80° C. The frozen cells were thawed, subsequently suspended immediately in 2×SDS-PAGE electrophoresis buffer (1×10^5 cells per 10 μl), and heated at 95° C. for 10 minutes, leading to the dissolution and denaturation of the proteins. The resulting sample solutions were subjected to SDS-PAGE using a 5-20% gradient acrylamide gel (e-PAGEL (5-20%), ATTO, E-T520L). After the electrophoresis was completed, the gel was immersed in tris-glycine buffer supplemented with 20% methanol, and the proteins in the gel were transferred onto a PVDF membrane (MILLIPORE, Immobilon-P, IPVH00010) using a semi-dry transfer apparatus (TRNS-BLOT SD SEMI-DRY […] CELL, BIO RAD).
The transferred PVDF membrane was blocked with 5% skim milk (Difco Skim Milk, BD, 232100), and then subjected to reaction with an anti-MCM2 goat antibody (N-19, Santa Cruz, sc-9839) or anti-phosphorylated MCM2 rabbit antibody (S53) (Bethyl, A300-756A) as a primary antibody and additionally with an anti-α tubulin mouse antibody (Clone DM 1A, SIGMA, 9026) as an internal control. Each band was detected by chemiluminescence using an HRP-labeled anti-goat IgG donkey antibody (Santa Cruz, sc2020), anti-rabbit IgG sheep antibody (Roche, 12015218001), or anti-mouse IgG donkey antibody (Jackson ImmunoResearch, 715-035-151) as a secondary antibody. The combinations of and the diluted concentrations of the primary and secondary antibodies were as indicated below.
The bands which were detected were normalized using the amount of endogenous α-tubulin as a reference, and the percent phosphorylation of MCM2 was calculated for each of the tested compounds. Their inhibitory effects on MCM2 phosphorylation were indicated by a triple asterisk (***) in the case where the percent phosphorylation of MCM2 was less than 20%, by a dual asterisk (**) in the case where the percent phosphorylation of MCM2 was not less than 20% and less than 50%, and by a single asterisk (*) in the case where the percent phosphorylation of MCM2 was not less than 50% and less than 70%.

human Cdc7/human ASK complex protein, sequence (O00311 whole entry): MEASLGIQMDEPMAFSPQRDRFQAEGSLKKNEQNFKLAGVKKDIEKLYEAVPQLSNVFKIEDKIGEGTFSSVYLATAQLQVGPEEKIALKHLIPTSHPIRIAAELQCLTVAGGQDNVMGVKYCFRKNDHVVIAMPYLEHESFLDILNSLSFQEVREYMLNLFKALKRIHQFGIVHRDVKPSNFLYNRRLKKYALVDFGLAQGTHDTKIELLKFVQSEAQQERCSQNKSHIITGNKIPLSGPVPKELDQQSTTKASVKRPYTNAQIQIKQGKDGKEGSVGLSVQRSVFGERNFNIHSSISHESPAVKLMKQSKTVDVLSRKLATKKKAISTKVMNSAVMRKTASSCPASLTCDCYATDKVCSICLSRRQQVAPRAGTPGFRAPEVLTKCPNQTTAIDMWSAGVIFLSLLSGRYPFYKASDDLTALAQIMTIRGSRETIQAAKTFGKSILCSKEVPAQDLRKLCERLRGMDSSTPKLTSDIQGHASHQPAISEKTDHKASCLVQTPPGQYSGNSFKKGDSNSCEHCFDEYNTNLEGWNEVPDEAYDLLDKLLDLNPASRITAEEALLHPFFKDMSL
human Cdc7/human ASK complex protein, sequence (Q9UBU7 whole entry partner): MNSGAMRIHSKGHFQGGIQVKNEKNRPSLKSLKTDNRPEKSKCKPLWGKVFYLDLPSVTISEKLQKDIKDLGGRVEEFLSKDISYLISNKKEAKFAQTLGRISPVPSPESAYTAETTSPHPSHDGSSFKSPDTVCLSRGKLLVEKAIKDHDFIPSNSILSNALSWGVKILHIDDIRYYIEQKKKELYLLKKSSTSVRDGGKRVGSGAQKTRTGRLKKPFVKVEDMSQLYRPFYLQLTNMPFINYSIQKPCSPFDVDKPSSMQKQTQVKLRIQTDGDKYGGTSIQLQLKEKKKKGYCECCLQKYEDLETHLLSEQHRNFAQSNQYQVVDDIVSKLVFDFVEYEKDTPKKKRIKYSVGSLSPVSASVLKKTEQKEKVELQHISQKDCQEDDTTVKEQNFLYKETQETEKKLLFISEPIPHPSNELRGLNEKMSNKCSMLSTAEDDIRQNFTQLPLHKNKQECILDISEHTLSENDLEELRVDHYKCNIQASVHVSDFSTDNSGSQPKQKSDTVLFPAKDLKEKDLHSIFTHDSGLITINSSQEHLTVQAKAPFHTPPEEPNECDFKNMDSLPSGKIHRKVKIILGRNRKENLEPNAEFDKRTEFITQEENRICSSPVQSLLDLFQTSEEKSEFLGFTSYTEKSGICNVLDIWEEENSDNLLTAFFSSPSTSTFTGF

Row | SMILES | IC50 [1] [nM] | inhibition at 0.1 µM [2] [%] | IC50 ([1]; human Cdc7/human ASK complex, FITC-labeled MCM2 peptide substrate, reaction 5 hours at room temperature, read-out: Test Example 1 Cdc7 IC50 value) [nM]
1 | Cc1ccsc1CNC1=CC(=O)/C(=C/c2c[nH]c3ncccc23)O1 [Example 242, 2-[(1H-Pyrrolo[2,3-b]pyridin-3-yl)methylene]-5-{[(3-methyl-2-thienyl)methyl]amino}furan-3(2H)-one] | 1 | < 20 | –
2 | COCCOC(=O)C1=C(Nc2ccccc2Cl)O/C(=C\c2c[nH]c3ncccc23)C1=O [Example 173, 2-Methoxyethyl 5-[(1H-pyrrolo[2,3-b]pyridin-3-yl)methylene]-2-[(2-chlorophenyl)amino]-4-oxo-4,5-dihydrofuran-3-carboxylate] | – | < 20 | 3
